“Also recorded” adds a separate entry of the source.
Assays:
DRGs = test: anti-NGF antibody (NGF withdrawal) screen for inhibitors of axon degeneration in DRG explants; format: cell-based, mouse; details: inhibitor 100 μM or 10 μM added 1 hour before 25 μg/ml anti-NGF; 20 hours; actin stain
Protocol: The anti-NGF antibody model described above in Example 1 was used in a screen for inhibitors of neuron or axon degeneration. A library of more than 400 small molecules (Tocris Bioscience) was tested to see which, if any, modulate degeneration observed in the presence of anti-NGF antibodies.
Mouse E13.5 embryos were dissected and placed into L15 medium (Invitrogen). The spinal cord was dissected out from the embryos with DRGs attached. The spinal cords with DRGs attached were placed into L15 medium+5% goat serum (Gibco) on ice. The DRGs were removed using a tungsten needle and the remaining spinal cord was disposed of. Eight well slides were filled with N3-F12 solution (23 ml Ham's F12, 1 ml N3 supplement, and 1 ml 1 M glucose) to which was added 25 ng/ml NGF (Roche). (N3 supplement was made by dilution of N3 100× concentrate, which was made by mixing the following ingredients, in the following order: 5.0 ml Hank's buffered saline solution (HBSS; Ca, Mg free; Invitrogen), 1.0 ml bovine serum albumin (10 mg/ml in HBSS=150 μm), 2.0 ml Transferrin (T1147-1G, human, 100 mg/ml in HBSS=1.1 mM), 1.0 ml sodium selenite (S9133-1MG, 0.01 mg/ml in HBSS 58 μM), 0.4 ml putrescine dihydrochloride (P5780-5G, 80 mg/ml in HBSS=500 mM), 0.2 ml progesterone (P8783-5G, 0.125 mg/ml in absolute ethanol=400 μM), 0.02 ml corticosterone (C2505-500MG, 2 mg/ml in absolute ethanol=5.8 mM), 0.1 ml triiodothyonine, sodium salt (T6397-100MG, 0.2 mg/ml in 0.01 N NaOH=300 μM), 0.4 ml insulin (16634-250MG, bovine pancreas, 241 U/mg, 25 mg/ml in 20 mM HCl=4.4 mM), for a total volume of 10.02 ml (can be stored at −20° C.). An N3 supplement stock was made by combining the following: 10 ml Pen/Strep (100×, Gibco), 10 ml glutamine (200 mM, Gibco), 10 ml MEM vitamins (100×, Gibco), 10 ml N3 concentrate (100×, see above), for a total volume of 40 ml. The mixture was filter sterilized using a 0.22 μm filter, and 1-2 ml aliquots were stored at −20° C.).
The DRGs were sectioned into halves and placed in the center of each well of an 8-chamber slide (BD Biocoat PDL/Laminin coated glass, Becton Dickinson). The DRGs were permitted to attach to the slide at room temperature for 5-10 minutes, followed by an overnight incubation at 37° C. Inhibitors of choice were added at a concentration of 100 μM (top row) or 10 μM (bottom row) 1 hour before adding anti NGF antibodies. The anti-NGF antibodies were added to the right half of the slide (4 wells) at a concentration of 25 μg/ml. After incubation for 20 hours at 37° C., the slides were fixed with 30% sucrose/8% paraformaldehyde (PFA) by adding 250 μl of the fix solution directly to the 250 μl of culture medium. (To make the 30% sucrose/8% PFA solution, the following ingredients were added to a 600 ml beaker including a stir bar: 250 ml 16% PFA (cat#15710-S, Electron Microscopy Sciences), 50 ml 10×PBS pH 7.4, and 150 g sucrose. The solution was mixed under low heat until dissolved, and then 6-8 drops of 1 M NaOH were added to bring the pH to 7.4. The volume was then brought to 500 ml with water in a graduated cylinder. The solution was mixed well, placed in aliquots, and frozen.) The s ides were fixed for 30 minutes, followed by washing once with PBS. All cells were labeled with an actin stain (Alexa-568 conjugated phalloidin; 1:40; Invitrogen), a membrane dye (DiO; 1:200; Invitrogen), and a DNA stain (Hoechst 33258; 1:10,000; Invitrogen) in 0.1% Triton and 1% goat serum for 2 hours at room temperature. […]

[1] = tested on: DRG neurons (axon vs. cell body compartment); test: Campenot chamber local axon degeneration (anti-NGF in axon compartment); format: cell-based, mouse
Protocol: Teflon dividers (Tyler Research) were cleaned by washing in water and wiping them clean of any residual grease. Dividers were then soaked in Nochromix (Godax Laboratories)/sulfuric acid overnight, rinsed five times in distilled and autoclaved water (SQ water), boiled for 30 minutes, and then air-dried before use
Mouse laminin (5 μg/ml in sterile filtered water; Invitrogen) was added to PDL coated 35 mm dishes (BD Biosciences) and they were incubated for 1 hour at 37° C., followed by two rinses in SQ water. The dishes were vacuum-dried and then air-dried in a laminar flow hood for 15 minutes. Prepared dishes were then scored with a pin rake (Tyler Research). […] High vacuum grease (VWR) was added to each Teflon divider under a dissection scope. The laminin coated PDL dishes were inverted and dropped onto the Teflon divider, with additional pressure added by use of a toothpick in the non-track-containing regions. Dishes were incubated for 1 hour at 37° C. Five hundred microliters of NBM+MC (50 ng/ml NGF) solution was added to each of the side compartments, and a grease barrier was added in front of the center cell slot.
Free E13.5 spinal cords were dissected from mouse embryos and placed into NBM+MC (25 ng/ml NGF) solution. DRGs were detached from the spinal cord with a tungsten needle. An NBM+MC-lubricated P200 pipette was used to move DRGs into a 1.5 ml tube. DRGs were pelleted with a tabletop centrifuge for 30 seconds. The supernate was discarded and 0.05% Trypsin/EDTA (cold) was added. The pellet was resolubilized with a pipette and incubated at 37° C. for 15 minutes with constant agitation (650 RPM). The sample was again centrifuged and the supernate discarded. The pellet was resuspended in warm NBM+MC (50 ng/ml NGF) solution and triturated with a flamed glass pipette 20 times, followed by trituration with a fire-bored glass pipette another 20 times. The samples were again centrifuged and the resulting pellets were resuspended in 0.5 ml NBM+MC (50 ng/ml NGF) solution. The cells were diluted to a final concentration of 2.5×10^6 cells/ml. The cell suspensions were loaded into a 1 ml syringe with a 22 gauge needle. The center slot of the Campenot divider was filled using the syringe (to a volume of at least 50 μl). The Campenot chamber was incubated overnight at 37° C. 2.5 ml NGF+MC (50 ng/ml NGF) solution was added to the center compartment and the grease gate was removed. The outer medium (cell body compartment) was replaced after three days with 2.5 ml NBM+MC medium (with 25 ng/ml NGF). After five days in culture, one distal compartment was washed three times with warmed NBM+MC (no NGF) solution. After the third wash, 500 μl NBM+MC (no NGF) solution was added to the axon compartment in combination with either 0.5% DMSO or an inhibitor. The cell body compartment was replaced with 2.5 ml NBM+MC medium (with 25 ng/ml NGF) containing either 0.5% DMSO or inhibitor.
After 28 hours of anti-NGF antibody treatment, 8% PFA/30% sucrose solution (see above) was added directly to the culture medium at a 1:1 dilution and incubated for 30 minutes. The Teflon divider was removed after the first 15 minutes of addition. The system was washed once with 2.5 ml PBS prior to immunostaining. Neurons were blocked in 5% BSA/0.2% triton in PBS for 30 minutes. The primary antibody Tuj1 (Covance) was added to a final dilution of 1:1000 in PBS containing 2% BSA and incubated overnight at 4° C. The dish was washed once with PBS. […] The dish was washed twice with PBS, and a 22×22 mm coverslip (VWR) was added with 350 μl of fluoromount G (Electron Microscopy Sciences). The neurons were visualized by use of a fluorescence microscope.
As described above, E13.5 DRGs were isolated and grown for 5 days in a Campenot chamber.

[2] = tested on: cerebellar granule neurons (CGNs); test: serum deprivation/KCl reduction degeneration of cerebellar granule neurons; format: cell-based, mouse; details: 5 μM; 5 mM KCl, 24 hours
CaMKK = CaMKK activity after ionomycin stimulation, transfected HeLa cells; published source; read-out: Cellular IC50; cited from earlier work
p38 MAPK = details: LPS-induced TNF-alpha production, human monocytes; published source; read-out: Cellular IC50; cited from earlier work

Row | SMILES | Comments (observations on compounds found to protect against neurodegeneration) (DRGs) | Axon Compartment (protection of NGF-deprived axons) ([1]; inhibitor 15 μM in axon compartment) | Cell Body Compartment (protection of NGF-deprived axons) ([1]; inhibitor 15 μM in cell body compartment) | protection of cerebellar granule neurons from serum deprivation/KCl reduction [2] | IC50 (CaMKK) | formation of varicosities in locally NGF-deprived axons ([1]; 30 μM SB415, 15 μM Act D in cell body compartment, 10 μM AG555, 30 μM SB239 in axon compartment) | Axon Compartment (protection of NGF-deprived axons) ([1]; inhibitor 5 μM in axon compartment) | Cell Body Compartment (protection of NGF-deprived axons) ([1]; inhibitor 5 μM in cell body compartment) | Axon Compartment (protection of NGF-deprived axons) ([1]; inhibitor 30 μM in axon compartment, anti-NGF on axons 28 hours, number in parentheses not explained) | Axon Compartment (protection of NGF-deprived axons) ([1]; inhibitor 30 μM in axon compartment, anti-NGF on axons 28 hours, number in parentheses not explained, listed as SB239) | Cell Body Compartment (protection of NGF-deprived axons) ([1]; inhibitor 30 μM in cell body compartment, anti-NGF on axons 28 hours, number in parentheses not explained) | Cell Body Compartment (protection of NGF-deprived axons) ([1]; inhibitor 30 μM in cell body compartment, anti-NGF on axons 28 hours, number in parentheses not explained, listed as SB239) | IC50 (p38 MAPK)
1 | O=C(O)c1ccc2c3c1cccc3c(=O)n1c3ccccc3nc21 [STO-609] | Partial | Yes (1) | No (1) | protect | 3000 nM |  |  |  |  |  |  |  | 
2 | COc1nccc(-c2c(-c3ccc(F)cc3)ncn2C2CCC(O)CC2)n1 (centres unmarked) [SB239063] |  |  |  | protect |  | fewer varicosities | Yes (1) | No (1) | Yes (3) | did not degenerate; also recorded: protected from local degeneration | No (3) | failed to prevent degeneration | 350 nM

Reference: US20140328940A1, “MODULATION OF AXON DEGENERATION” (Genentech, Inc., priority 2009, published 2014)
